Test results as given in patent EP0443498A1, “Isoindoline derivatives” (KYORIN PHARMACEUTICAL CO., LTD., priority 1990, dated 1991).
Counter-ions that a name gives are not always drawn. Like-named read-outs stand apart in the source and are kept apart here.

Assays:
S. aureus Smith [1] = experiment: Therapeutic effect on the systemic infection of mouse; type: in vivo, ICR mice; conditions: Staphylococcus aureus, po, 1 h, read-out: ED50 S. aureus
Procedure: (§1) The infectious bacteria were injected intraperitoneally using five ICR mice per group. one hour later, 5 doses of drugs were administered once orally, respectively, and, from a curve of survival rate of mouse as a function of dose of drug, a dose (EDso) by which 50% of animals escape the death to heal was determined.

E. coli ML 4707 = experiment: as above; type: in vivo, ICR mice; conditions: Escherichia coli, ML4707, po, 1 h, read-out: ED50 E. coli
Procedure: as §1

K. pneumoniae KY6445 = experiment: Antibacterial spectra (MIC), method of the Society of Chemotherapy in Japan; type: cell-based; conditions: Klebsiella pneumoniae; K. pneumoniae KY6445, Gram -, 10^6 cells/ml; read-out: Minimum inhibitory concentration for growth
S. epidermidis IID866 = experiment: as above; type: cell-based; conditions: Staphylococcus epidermidis; S. epidermidis IID866, Gram +, 10^6 cells/ml; read-out: Minimum inhibitory concentration for growth
S. enteritidis IID604 = experiment: as above; type: cell-based; conditions: Salmonella enterica; S. enteritidis IID604, Gram -, 10^6 cells/ml; read-out: Minimum inhibitory concentration for growth
E. cloacae IID977 = experiment: as above; type: cell-based; conditions: Enterobacter cloacae; E. cloacae IID977, Gram -, 10^6 cells/ml; read-out: Minimum inhibitory concentration for growth
C. freundii IID976 = experiment: as above; type: cell-based; conditions: Citrobacter freundii; C. freundii IID976, Gram -, 10^6 cells/ml; read-out: Minimum inhibitory concentration for growth
S. pneumoniae type III = experiment: as above; type: cell-based; conditions: Streptococcus pneumoniae, Gram +, 10^6 cells/ml, read-out: Minimum inhibitory concentration for growth
B. thetaiotaomicron 0661 = experiment: as above; type: cell-based; conditions: Bacteroides thetaiotaomicron; B. thetaiotaomicron 0661, Gram -, 10^6 cells/ml; read-out: Minimum inhibitory concentration for growth
A. anitratus IID876 = experiment: as above; type: cell-based; conditions: Acinetobacter calcoaceticus; A. anitratus IID876, Gram -, 10^6 cells/ml; read-out: Minimum inhibitory concentration for growth
P. aeruginosa V-1 = experiment: as above; type: cell-based; conditions: Pseudomonas aeruginosa, V1; P. aeruginosa V-1, Gram -, 10^6 cells/ml; read-out: Minimum inhibitory concentration for growth
S. aureus 209P = experiment: as above; type: cell-based; conditions: Staphylococcus aureus, Gram +, 10^6 cells/ml, read-out: Minimum inhibitory concentration for growth
P. mirabilis IID994 = experiment: as above; type: cell-based; conditions: Proteus mirabilis; P. mirabilis IID994, Gram -, 10^6 cells/ml; read-out: Minimum inhibitory concentration for growth
S. pyogenes S-8 = experiment: as above; type: cell-based; conditions: Streptococcus pyogenes, S8; S. pyogenes S-8, Gram +, 10^6 cells/ml; read-out: Minimum inhibitory concentration for growth
S. aureus Smith [2] = experiment: as above; type: cell-based; conditions: Staphylococcus aureus, Gram +, 10^6 cells/ml, read-out: Minimum inhibitory concentration for growth
S. marcescens IID618 = experiment: as above; type: cell-based; conditions: Serratia marcescens; S. marcescens IID618, Gram -, 10^6 cells/ml; read-out: Minimum inhibitory concentration for growth
P. maltophilia GIFU2491 = experiment: as above; type: cell-based; conditions: Stenotrophomonas maltophilia; P. maltophilia GIFU2491, Gram -, 10^6 cells/ml; read-out: Minimum inhibitory concentration for growth
M. morganii IID602 = experiment: as above; type: cell-based; conditions: Morganella morganii; M. morganii IID602, Gram -, 10^6 cells/ml; read-out: Minimum inhibitory concentration for growth
P. vulgaris IFO3167 = experiment: as above; type: cell-based; conditions: Proteus vulgaris; P. vulgaris IFO3167, Gram -, 10^6 cells/ml; read-out: Minimum inhibitory concentration for growth
P. aeruginosa IID1210 = experiment: as above; type: cell-based; conditions: Pseudomonas aeruginosa; P. aeruginosa IID1210, Gram -, 10^6 cells/ml; read-out: Minimum inhibitory concentration for growth
E. coli NIHJ JC-2 = experiment: as above; type: cell-based; conditions: Escherichia coli, NIHJJC2; E. coli NIHJ JC-2, Gram -, 10^6 cells/ml; read-out: Minimum inhibitory concentration for growth
S. sonnei IID969 = experiment: as above; type: cell-based; conditions: Shigella sonnei; S. sonnei IID969, Gram -, 10^6 cells/ml; read-out: Minimum inhibitory concentration for growth
Procedure: The antibacterial test was performed according to the method designated by Society of Chemotherapy in Japan.

P. aeruginosa IFO12689 = experiment: as above; type: cell-based; conditions: Pseudomonas aeruginosa; P. aeruginosa IFO12689, Gram -, 10^6 cells/ml; read-out: Minimum inhibitory concentration for growth
[3] = S. aureus Smith, 4.8x10^6 CFU/mouse intraperitoneally, drug once orally one hour later, dose at which 50% of ICR mice survive
[4] = E. coli ML 4707, 8.8x10^6 CFU/mouse intraperitoneally, drug once orally one hour later, dose at which 50% of ICR mice survive

O=C(O)c1cn(C2CC2)c2cc(N3CCNCC3)c(F)cc2c1=O [CPFX, Ciprofloxacin, reference compound]
ED50 (S. aureus Smith [1]): 20.3 mg/kg | ED50 (E. coli ML 4707): 0.49 mg/kg

COc1c(N2C[C@@H](C)[C@H](N)C2)c(F)cc2c(=O)c(C(=O)O)cn(C3CC3)c12 [Example 33, 7-[3(S)-amino-4(R)-methyl-l-pyrrolidinyl]-1-cyclopropyl-6-fluoro-1,4-dihydro-8-methoxy-4-oxo-3-quinolinecarboxylic acid hydrochloride]
MIC (K. pneumoniae KY6445): 0.025 µg/mL | MIC (S. epidermidis IID866): 0.05 µg/mL | MIC (S. enteritidis IID604): 0.05 µg/mL | MIC (E. cloacae IID977): 0.05 µg/mL | ED50 (S. aureus Smith [1]; [3]): 1.21 mg/kg | ED50 (E. coli ML 4707; [4]): 0.31 mg/kg | MIC (C. freundii IID976): 0.05 µg/mL | MIC (S. pneumoniae type III): 0.05 µg/mL | MIC (B. thetaiotaomicron 0661): 0.2 µg/mL | MIC (A. anitratus IID876): 0.05 µg/mL | MIC (P. aeruginosa V-1): 0.2 µg/mL | MIC (S. aureus 209P): 0.025 µg/mL | MIC (P. mirabilis IID994): 0.05 µg/mL | MIC (S. pyogenes S-8): 0.05 µg/mL | MIC (S. aureus Smith [2]): 0.025 µg/mL

COc1c(N2C[C@H](C)[C@@H](N)C2)c(F)cc2c(=O)c(C(=O)O)cn(C3CC3)c12 [Example 36, 7-[3(R)-amino-4(S)-methyl-I-pyrrolidinyl]-I-cyclopropyl-6-fluoro-1-4-dihydro-8-methoxy-4-oxo-3-quinolinecarboxylic acid hydrochloride]
MIC (K. pneumoniae KY6445): 0.05 µg/mL | MIC (S. marcescens IID618): 0.2 µg/mL | MIC (P. maltophilia GIFU2491): 0.2 µg/mL | MIC (M. morganii IID602): 0.2 µg/mL | MIC (E. cloacae IID977): 0.2 µg/mL | ED50 (S. aureus Smith [1]; [3]): 6.08 mg/kg | ED50 (E. coli ML 4707; [4]): 2.04 mg/kg | MIC (S. pneumoniae type III): 0.2 µg/mL | MIC (B. thetaiotaomicron 0661): 1.56 µg/mL | MIC (P. vulgaris IFO3167): 0.025 µg/mL | MIC (P. aeruginosa IID1210): 1.56 µg/mL | MIC (E. coli NIHJ JC-2): 0.025 µg/mL | MIC (S. aureus 209P): 0.05 µg/mL | MIC (S. pyogenes S-8): 0.2 µg/mL | MIC (S. sonnei IID969): 0.025 µg/mL | MIC (P. aeruginosa IFO12689): 1.56 µg/mL
